Laboratory results reported in US20060069157A1, “Method of ameliorating or abrogating the effects of a neurodegenerative disorder, such as Huntington's disease, by sodium butyrate chemotherapy” (U.S. DEPARTMENT OF VETERANS AFFAIRS, priority 2004, published 2006).
“Also recorded” adds a separate entry of the source.

Experiments:
[1] = test system: R6/2 transgenic mouse model of HD; assay: Neuropathological evaluation (brain weight, gross atrophy, striatal neuron area) at 90 days; format: in vivo
Experimental: (§1) Neuropathological Evaluation of Sodium Butyrate Treatment: Beginning at 21 days, R6/2 transgenic mice and wild-type littermate control mice were treated daily with the most optimal dose of sodium butyrate (1.2 g/kg), as determined by survival studies, or PBS intraperitoneal injections. Groups of 10 animals from each treatment paradigm were deeply anesthetized and transcardially perfused with 4% buffered paraformaldehyde at 90 days of age. Forty mice were used for neuropathological analysis, as previously described (Ferrante et al., 2002). Serially cut tissue sections were stained for Nissl substance and immunostained for huntingtin (monoclonal huntingtin antibody, 1:1,000 dilution, Chemicon International Inc.) and for acetylated histone 3 and histone 4 (dilution, 1:1,000, Upstate Biotechnology, Lake Placid, N.Y.), using a previously reported conjugated secondary antibody method in murine brain tissue samples (Ferrante et al., 2002). Specificity for the antisera used in this study was examined in each immunochemical experiment to assist with the interpretation of the results. Preabsorption with excess target proteins, omission of the primary antibodies, and omission of secondary antibodies were performed to determine the amount of background generated from the detection assay.
(§2) Stereology/Quantitation: Serial-cut coronal tissue-sections beginning from the most rostral segment of the neostriatum to the level of the anterior commissure (Inter aural 5.34 mm/Bregma 1.54 mm to Inter aural 3.7 mm/Bregma −0.10 mm), were used for huntingtin aggregate analysis. Unbiased stereological counts of huntingtin-positive aggregates ([…]) were obtained from the neostriatum in 10 mice each from sodium butyrate-treated (1.2 g/kg) and PBS-treated R6/2 mice at 90 days using Neurolucida Stereo Investigator software (Microbrightfield, Colchester, Vt.). The total areas of the rostral neostriatum were defined in serial sections in which counting frames were randomly sampled. The optical dissector method was employed estimating the number of huntingtin-positive aggregates. Striatal neuron areas were analyzed by microscopic videocapture using a Windows-based image analysis system for area measurement (Optimas, Bioscan Incorporated, Edmonds, Wash.). The software automatically identifies and measures profiles. All computer identified cell profiles were manually verified as neurons and exported to Microsoft Excel. Cross-sectional areas were analyzed using Statview.

[2] = test system: acetylated histone 3 and histone 4; assay: Immunocytochemistry of acetylated H3 and H4 in brain sections; format: in vivo, mouse; conditions: 1.2 g/kg/d i.p.; R6/2 mice at 90 days
Experimental: as §1

Sp1 [3] = assay: Sp1 acetylation immunoprecipitation and Western blot analysis; format: in vivo, mouse; conditions: 1.2 g/kg/day i.p. for two weeks
Experimental: Sp1 Acetylation Immunoprecipitation and Western Blot Analysis: At 42 days of age, groups (n=6) of R6/2 mice were treated with daily 1.2 g/kg sodium butyrate or PBS intraperitoneal injections for two weeks. The mice were euthanized and tissue lysates were obtained by homogenizing each brain sample with 100 mM Tris (pH 7.4) buffer containing 1% Triton-X 100, 150 mM NaCl, 1 mM sodium orthovanadate, 5 mM sodium fluoride, 3 mM PMSF, 3 mM DTT, 0.5 Êg/ml leupeptin, and 10 Êg/ml aprotinin. To monitor Sp1 acetylation in vivo, tissue lysates were precleared by the addition of 30 Êl of protein A-sepharose (50% v/v slurry) for 1 hr at 4° C. and incubated with 2 Êg of Sp1 antibody for 2-4 hr. Twenty-five Êl of protein A-sepharose was added to lysates and left for 1 hr at […]. All beads were collected by centrifugation and washed twice with lysis buffer and once with PBS. The samples were boiled and divided into equal aliquots before separation on SDS-PAGE. Samples were electrophoresed under reducing conditions on 8% polyacrylamide gels. Proteins were then transferred to nitrocellulose membrane (BioRad, Hercules, Calif.). […] Proteins immunoreactive to acetyl lysine were detected by using an acetyl-lysine specific antibodies (Upstate Biotechnology, Lake Placid, N.Y., 1:1000 dilution). Immunoreactive proteins were detected according to an enhanced chemiluminescent protocol (Amersham, Piscataway, N.J.). […]

[4] = test system: 3-NP induced striatal lesions in R6/2 mice; assay: 3-Nitropropionic acid (3-NP) striatal toxicity in R6/2 mice; format: in vivo, mouse
Experimental: 3-Nitropropionic Acid Administration: At six weeks, groups of 10 R6/2 mice were treated with daily 1.2 g/kg sodium butyrate or PBS via intraperitoneal injections for two weeks. At the start of week two, 3-nitropropionic acid (3-NP) (Sigma, St. Louis, Mo.) was dissolved in PBS (pH adjusted to 7.4), made fresh daily, and injected intraperitoneally 9 times at 12 hrs intervals (75 mg/kg) in R6/2 mice. The mice were euthanized 8-10 hrs after the last 3-NP injection, deeply anesthetized and transcardially perfused with buffered 4% paraformaldehyde and processed for histopathologic evaluation. Glycerol cryoprotected brains were frozen sectioned at 50 Êm, stained with cresyl violet, and quantitative analysis of lesion volumes was performed in serial sections as described below.
as §2

Sp1 [5] = conditions: wild type B6CBA mice at 8 weeks of age after 2 weeks of treatment (Ryu, 2003a); cited from earlier work

CCCC(=O)[O-].[Na+] [sodium butyrate]
brain weight loss ([1]; 1.2 g/kg/d i.p. from 21 days, vs wild type littermates (unsupplemented R6/2: 18.9%)): 5.6%
striatal neuron area ([1]; 1.2 g/kg/d i.p., Wt 138.9, PBS-treated R6/2 57.1, p<0.01 vs PBS): 113.5 ± 14.2 _m2
reduction of striatal neuron atrophy ([1]; 1.2 g/kg/d i.p., vs PBS-treated R6/2): one fold
gross brain atrophy, ventricular hypertrophy ([1]; 1.2 g/kg/d i.p., vs PBS-treated/untreated R6/2): reduced gross brain atrophy and ventricular enlargement; also recorded: ameliorated these gross neuropathological sequelae
H3 and H4 acetylation immunostaining in brain sections [2]: increased acetylation of histone 4; also recorded: greatly enhanced
basal levels of Sp1 (Sp1 [3]; R6/2 mice): did not change
Sp1 acetylation levels in brain (Sp1 [3]; R6/2 mice vs PBS): increased
mice with bilateral striatal lesions ([4]; 1.2 g/kg/d i.p. two weeks, 3-NP in second week, 3-NP/PBS: seven of ten): two of ten
neuroprotection from 3-NP striatal damage ([4]; 1.2 g/kg/d i.p. two weeks, 3-NP in second week, vs 3-NP and PBS-treated R6/2): prevented 3-NP striatal-induced damage; also recorded: marked neuroprotection; also recorded: nearly complete protection
reduction in lesion volume ([4]; 1.2 g/kg/d i.p., vs 3-NP/PBS-treated R6/2 mice): 73.3%
Sp1 acetylation (Sp1 [5]): significantly augmented
